Source: PMC6141879, “How Does the Sweet Violet (Viola odorata L.) Fight Pathogens and Pests – Cyclotides as a Comprehensive Plant Host Defense System” (Frontiers in Plant Science, 2018)
≈ marks a conversion by molar mass, not a printed value. Where a SMILES comes first, the peptide text is derived from it. Bridges are numbered along the chain shown (N, C = ends).

How the values were obtained:
F. oxysporum = experiment: Cyclotide stability assay in F. oxysporum culture; format: in vitro ADME, Fusarium oxysporum; settings: 5 days old F. oxysporum culture (3000 spores in 150 μl 24 g l^-1 PDB), 5 μg cyO2 per well, 3 days, HPLC-UV 280 nm AUC relative to time 0, mean of triplicates, unaltered molecular mass
Method: Freshly harvested F. oxysporum spores were grown in microplates (3000 spores in 150 μl of 24 g l^-1 PDB per well) on a rotary shaker. After 5 days of incubation, 5 μg of cyO2 in 10 μl of Milli-Q water was added to each well. Samples of the medium and mycelia were collected in Eppendorf tubes immediately after adding cyO2 (time 0) and after incubation with the cyclotide for 2, 4, 8h, 1, 2, and 3 days. The samples were freeze-dried, crushed with a pestle, and extracted with 200 μl of buffer B for 4 h on the rotary shaker. After centrifugation, the supernatant was collected, freeze-dried and reconstituted in buffer A for analysis by HPLC-UV-ESI-MS. HPLC was performed over 18 min using an LC-20 UFLC system (Shimadzu, Japan) with photodiode array detector (PDA) and a Waters (Milford, MA) XTerra MS C18 HPLC column (2.1 × 50 mm, with a particle size of 2.5 μm) at a flow rate of 0.5 ml min^-1 with a linear gradient from 5% to 60% ACN and 0.1% formic acid in water. ESI-MS detection was used to identify the cyO2 peak and to detect modifications of the peptide that may have been introduced by the fungus. For each incubation time, the peaks in the 280 nm UV chromatogram corresponding to cyO2 were integrated, and the mean area under the curve (AUC) for each incubation time was computed from independent triplicates. […]

Fusarium oxysporum = settings: 0 h
Fusarium graminearum = settings: 48 h
Fusarium culmorum = settings: 48 h
Mycosphaerella fragariae = settings: 48 h
[1] = system: Colletotrichum utrechtense; settings: 72 h
Alternaria alternata = settings: 72 h
[2] = system: Dickeya dadantii strain 3937; settings: 24 h
[3] = system: Pectobacterium atrosepticum SCRI 1043; settings: 24 h
[4] = Liposome leakage assay, fungal membrane model; settings: read-out: EC50 of liposome permeabilization (carboxyfluorescein leakage); S. cerevisiae polar lipid extract:ergosterol 7:3 liposomes, Tris buffer, 45 min, % of Triton X-100 leakage, triplicate
[5] = system: Pseudomonas syringae pv. syringae strain Pss-762; experiment: Antibacterial MIC assay (CLSI), P. syringae pv. syringae; format: cell-based; settings: M9 minimal medium with 0.4% glucose, 24 h, 28°C, 1.5 × 10^6 CFU ml^-1, OD600 < 0.1, triplicate, repeated three times
Method: Cyclotides (cycloviolacin O2, O3, and O19) at concentrations of 0.78–100 μM were tested for activity against three bacterial plant pathogens: Pseudomonas syringae pv. syringae strain Pss-762 ([Taraszkiewicz et al., 2012]), Dickeya dadantii strain 3937 ([Glasner et al., 2011]) and Pectobacterium atrosepticum SCRI 1043 ([Bell et al., 2004]). Experiments were conducted according to the CLSI guidelines ([Clinical and Laboratory Standards Institute [CLSI], 2012]) using standard CA-MHB medium (BBL^TM Mueller-Hinton II Broth cation-adjusted, Becton Dickinson) or M9 minimal medium (per L: 6 g Na2HPO4, 3g KH2PO4, 0.5 g NaCl, 1 g NH4Cl) supplemented with glucose to a final concentration of 0.4%. Bacterial colonies from 24 h old cultures on TSA (trypticase soy agar, BioMerieux) plates were used to inoculate CA-MHB or M9 minimal medium and set up liquid cultures. Next, late log phase bacterial cultures were diluted to 0.5 McFarland standard, as determined by densimetry in the relevant medium (DensiMeter II, EMO, Brno). […] The minimal inhibitory concentration (MIC) of each cyclotide was determined as the lowest concentration required to inhibit bacterial growth, i.e., to reduce the culture’s OD600 to less than 0.1. OD600 values were measured with a microplate reader (EnVision^TM Multilabel Plate Reader, Perkin Elmer). […]

Botrytis cinerea = settings: 48 h
[6] = system: seven fungal plant pathogens; settings: 0 h

With `CC[C@H](C)[C@@H]1NC(=O)[C@H](C)NC(=O)[C@H](CO)NC(=O)[C@H](CO)NC(=O)[C@H]([C@@H](C)CC)NC(=O)[C@@H]2CSSC[C@@H]3NC(=O)[C@H](C(C)C)NC(=O)[C@H](CCCCN)NC(=O)[C@H](CO)NC(=O)[C@H](CCCCN)NC(=O)[C@@H]4CSSC[C@H](NC(=O)[C@H](CO)NC(=O)[C@H](CCC(=O)O)NC(=O)CNC(=O)[C@H](CSSC[C@H](NC(=O)CNC1=O)C(=O)N[C@@H](CO)C(=O)N4)NC(=O)[C@@H]1CCCN1C(=O)[C@H]([C@@H](C)CC)NC(=O)CNC(=O)[C@H](CC(N)=O)NC(=O)[C@H](CCCNC(=N)N)NC(=O)[C@H](Cc1ccc(O)cc1)NC3=O)C(=O)N[C@@H](C(C)C)C(=O)N[C@@H](Cc1c[nH]c3ccccc13)C(=O)N[C@@H]([C@@H](C)CC)C(=O)N1CCC[C@H]1C(=O)N2` [cyO2, cycloviolacin O2] (cyclo(AIGCSCKSKVCYRNGIPCGESCVWIPCISS); disulfide 4-18, 6-22, 11-27 (inferred); ring closure inferred) the “initially added amount recovered after co-culture with F. oxysporum” value (F. oxysporum) was about 100%, the “MIC at the inoculum used for immunogold labeling” value (Fusarium oxysporum) was 80 µM and the MIC (Fusarium graminearum) was 6.25 µM (≈ 19.6 µg/mL). For the same compound, the MIC (Fusarium culmorum) was 1.5 µM (≈ 4.71 µg/mL), the MIC (Mycosphaerella fragariae) was over 25 µM and the MIC [1] was 6.25 µM (≈ 19.6 µg/mL). It also gave an MIC (Alternaria alternata) of 1.5 µM (≈ 4.71 µg/mL), an MIC [2] of 75 µM (≈ 236 µg/mL) and an MIC [3] of 100 µM (≈ 314 µg/mL). For the same compound, the EC50 [4] was 72 nM.

With `CC[C@H](C)[C@@H]1NC(=O)[C@H](C)NC(=O)[C@H](CO)NC(=O)[C@H]([C@@H](C)O)NC(=O)[C@H](CC(C)C)NC(=O)[C@@H]2CSSC[C@@H]3NC(=O)[C@H](C(C)C)NC(=O)[C@H](CCCCN)NC(=O)[C@H](CO)NC(=O)[C@H](CCCCN)NC(=O)[C@@H]4CSSC[C@H](NC(=O)[C@H](CO)NC(=O)[C@H](CCC(=O)O)NC(=O)CNC(=O)[C@H](CSSC[C@H](NC(=O)CNC1=O)C(=O)N[C@@H](CO)C(=O)N4)NC(=O)[C@@H]1CCCN1C(=O)[C@H]([C@@H](C)CC)NC(=O)CNC(=O)[C@H](CC(N)=O)NC(=O)[C@H](CCCNC(=N)N)NC(=O)[C@H](Cc1ccc(O)cc1)NC3=O)C(=O)N[C@@H](C(C)C)C(=O)N[C@@H](Cc1c[nH]c3ccccc13)C(=O)N[C@@H]([C@@H](C)CC)C(=O)N1CCC[C@H]1C(=O)N2` [cyO3] (cyclo(AIGCSCKSKVCYRNGIPCGESCVWIPCLTS); disulfide 4-18, 6-22, 11-27) the MIC [5] was 25 µM (≈ 78.9 µg/mL), the MIC (Botrytis cinerea) was 1.5 µM (≈ 4.73 µg/mL) and the MIC [1] was 6.25 µM (≈ 19.7 µg/mL). For the same compound, the MIC (Alternaria alternata) was 0.8 µM (≈ 2.52 µg/mL), the “MICs, range or bound over the tested fungi” value [6] was 0.8 to 12.5 µM and the MIC [2] was 75 µM (≈ 237 µg/mL). For the same compound, the MIC [3] was 100 µM (≈ 315 µg/mL) and the EC50 [4] was 67 nM.

`CC[C@H](C)[C@@H]1NC(=O)[C@H](C)NC(=O)[C@H](C)NC(=O)[C@H](CO)NC(=O)[C@H]([C@@H](C)CC)NC(=O)[C@@H]2CSSC[C@@H]3NC(=O)[C@H](C(C)C)NC(=O)[C@H](CCCCN)NC(=O)[C@H](CO)NC(=O)[C@H](CCCCN)NC(=O)[C@@H]4CSSC[C@H](NC(=O)[C@H](CO)NC(=O)[C@H](CCC(=O)O)NC(=O)CNC(=O)[C@H](CSSC[C@H](NC(=O)CNC1=O)C(=O)N[C@@H](CO)C(=O)N4)NC(=O)[C@@H]1CCCN1C(=O)[C@H]([C@@H](C)CC)NC(=O)CNC(=O)[C@H](CC(N)=O)NC(=O)[C@H](CCCNC(=N)N)NC(=O)[C@H](Cc1ccc(O)cc1)NC3=O)C(=O)N[C@@H](C(C)C)C(=O)N[C@@H](Cc1c[nH]c3ccccc13)C(=O)N[C@@H]([C@@H](C)CC)C(=O)N1CCC[C@H]1C(=O)N2` [cyO13] (cyclo(AAIGCSCKSKVCYRNGIPCGESCVWIPCIS); disulfide 5-19, 7-23, 12-28) showed an MIC (Botrytis cinerea) of 3 µM (≈ 9.37 µg/mL), an MIC [1] of 6.25 µM (≈ 19.5 µg/mL) and an MIC (Alternaria alternata) of 3 µM (≈ 9.37 µg/mL). It also gave an EC50 [4] of 130 nM.

Compound `CC[C@H](C)[C@@H]1NC(=O)[C@@H]2CSSC[C@@H]3NC(=O)[C@H](C(C)C)NC(=O)[C@H](CCCCN)NC(=O)[C@H](CO)NC(=O)[C@H](CCCCN)NC(=O)[C@@H]4CSSC[C@H](NC(=O)[C@H](CO)NC(=O)[C@H](CCC(=O)O)NC(=O)CNC(=O)[C@H](CSSC[C@H](NC(=O)CNC(=O)[C@H](C(C)C)NC(=O)[C@H](C(C)C)NC(=O)[C@H](CO)NC(=O)[C@H](CO)NC1=O)C(=O)N[C@@H](CO)C(=O)N4)NC(=O)[C@@H]1CCCN1C(=O)[C@H](CC(C)C)NC(=O)[C@H]([C@@H](C)O)NC(=O)CNC(=O)[C@H](CC(=O)O)NC(=O)[C@H](CCCCN)NC(=O)[C@H](Cc1ccc(O)cc1)NC3=O)C(=O)N[C@@H](C(C)C)C(=O)N[C@@H](Cc1c[nH]c3ccccc13)C(=O)N[C@@H]([C@@H](C)CC)C(=O)N1CCC[C@H]1C(=O)N2` [cyO19] (cyclo(CGESCVWIPCISSVVGCSCKSKVCYKDGTLP); disulfide 1-17, 5-19, 10-24) has an MIC [5] of 25 µM (≈ 80.7 µg/mL), an MIC (Botrytis cinerea) of 1.5 µM (≈ 4.84 µg/mL) and an MIC (Fusarium graminearum) of 12.5 µM (≈ 40.4 µg/mL). The MIC (Fusarium culmorum) was 1.5 µM (≈ 4.84 µg/mL), the MIC (Mycosphaerella fragariae) was over 25 µM and the MIC [1] was 6.25 µM (≈ 20.2 µg/mL). It also gave an MIC (Alternaria alternata) of 1.5 µM (≈ 4.84 µg/mL), an MIC [2] of 75 µM (≈ 242 µg/mL) and an MIC [3] of 100 µM (≈ 323 µg/mL). For the same compound, the EC50 [4] was 80 nM.

Work on `CC(C)C[C@@H]1NC(=O)CNC(=O)[C@H](CC(N)=O)NC(=O)[C@H](CCCNC(=N)N)NC(=O)[C@H]([C@@H](C)O)NC(=O)[C@@H]2CSSC[C@@H]3NC(=O)[C@H]([C@@H](C)O)NC(=O)CNC(=O)CNC(=O)[C@H](C(C)C)NC(=O)[C@@H]4CSSC[C@H](NC(=O)[C@H]([C@@H](C)O)NC(=O)[C@H](CSSC[C@H](NC(=O)[C@H](C(C)C)NC(=O)[C@@H]5CCCN5C1=O)C(=O)NCC(=O)N[C@@H](CCC(=O)O)C(=O)N[C@@H]([C@@H](C)O)C(=O)N4)NC(=O)CNC(=O)[C@@H]1CCCN1C(=O)[C@H]([C@@H](C)O)NC(=O)[C@H](CC(N)=O)NC3=O)C(=O)N[C@@H](CO)C(=O)N[C@@H](Cc1c[nH]c3ccccc13)C(=O)N1CCC[C@H]1C(=O)N[C@@H](C(C)C)C(=O)N2` [kB1, kalata B1] yielded an MIC (Botrytis cinerea) of 80 µM (≈ 231 µg/mL), an MIC (Fusarium graminearum) of over 80 µM and an MIC (Fusarium culmorum) of over 80 µM. The MIC (Mycosphaerella fragariae) was over 80 µM.

`CC(C)C[C@@H]1NC(=O)CNC(=O)[C@H](CC(N)=O)NC(=O)[C@H](CCCNC(=N)N)NC(=O)[C@H]([C@@H](C)O)NC(=O)[C@@H]2CSSC[C@@H]3NC(=O)[C@H]([C@@H](C)O)NC(=O)CNC(=O)CNC(=O)[C@H](C(C)C)NC(=O)[C@@H]4CSSC[C@H](NC(=O)[C@H](CO)NC(=O)[C@H](CSSC[C@H](NC(=O)[C@H](C(C)C)NC(=O)[C@@H]5CCCN5C1=O)C(=O)NCC(=O)N[C@@H](CCC(=O)O)C(=O)N[C@@H]([C@@H](C)O)C(=O)N4)NC(=O)CNC(=O)[C@@H]1CCCN1C(=O)[C@H]([C@@H](C)O)NC(=O)[C@H](CC(N)=O)NC3=O)C(=O)N[C@@H](CO)C(=O)N[C@@H](Cc1c[nH]c3ccccc13)C(=O)N1CCC[C@H]1C(=O)N[C@@H](C(C)C)C(=O)N2` [varv A] showed an MIC (Botrytis cinerea) of 80 µM (≈ 230 µg/mL), an MIC (Fusarium graminearum) of 40 µM (≈ 115 µg/mL) and an MIC (Fusarium culmorum) of 40 µM (≈ 115 µg/mL). It also gave an MIC (Mycosphaerella fragariae) of over 80 µM.
